# Data from patent US20160367622A1, “AGONISTS OF GUANYLATE CYCLASE USEFUL FOR THE TREATMENT OF OPIOID INDUCED DYSFUNCTIONS” (priority 2013, published 2016).
# Positions of bridges follow the written chain, without caps; N, C: chain ends. Non-standard residues stand in square brackets, D forms with d. No end group written: not given here.
# B1: SP-333 (peptide)
# peptide: [dN]DECELCVNVACTGC[dL]
# modifications: disulfide 4-12, 7-15
# What was measured:
# rat jejunum tissue = details: for effect of inhibitor on SP-333-stimulated Isc / effect on 1 μM SP-333-stimulated Isc: rat jejunum; for effect of inhibitor on SP-333-stimulated Isc: inhibitor pretreatment 5 min, then 1 μM SP-333; for effect on SP-333 stimulation of Isc: rat jejunum tissue, opioid either pre or post SP-333 treatment; for effect on 1 μM SP-333-stimulated Isc: apical pre-treatment with 5 μM opioid for 5 min
# T84 cells monolayer = details: for effect on SP-333 stimulation of Isc: T84 cells monolayer, opioid either pre or post SP-333 treatment; for effect on 1 μM SP-333-stimulated Isc: apical pre-treatment with 5 μM opioid for 5 min
# [1] = test system: female Sprague-Dawley rats; assay: methadone-induced delay in rat GI transit (charcoal meal); format: in vivo
# Experimental: (§1) Animals: All study procedures were conducted under a study outline approved by the Institutional Animal Care and Use Committee of MB Research Labs (Spinnerstown, Pa.) or Lampire Biological Laboratories (Pipersville, Pa.). Seven to eight week old female Sprague-Dawley rats [Crl:CD(SD)], weighing between ˜180-210 grams, were obtained from Charles River Laboratories and allowed to acclimate for a week. Animals were maintained on a 12 hour light-dark cycle. For intestinal tissue collection and evaluation of GI transit, rats were fasted for at least 18 hours before the experiment, with free access to water.
# (§2) The ability of opioids to delay GI transit in rats was tested by either administering 0 (vehicle) 0.25, 1 and 2.5 mg/kg of morphine or 0 (vehicle), 0.25, 2.5 and 5 mg/kg of methadone (1.5 ml/kg dose volume) by IP injection. Water served as vehicle control. Ten minutes later, a 2 mL charcoal meal consisting of 10% activated charcoal (Sigma-Aldrich, St. Louis, Mo.) and 10% gum Arabic (Sigma-Aldrich, St. Louis, Mo.) in water was administered via oral gavage. Rats were euthanized 10 min after the charcoal meal via IP injection of 150 mg/kg Beuthanasia-D solution (sodium pentobarbital, 390 mg/mL). The small intestine was removed and the total length from the pyloric sphincter to the ileocecal junction was recorded, as well as the distance traveled by the leading edge of the charcoal. Intestinal transit was determined by calculating the ratio (expressed as a percentage) of the distance between the pyloric sphincter and the leading edge of the charcoal to the distance between the pyloric sphincter and the ileocecal junction.
# To evaluate the ability of SP-333 to reverse methadone induced delayed GI transit, animals were administered 2.5 mg/kg of methadone by IP injection. Ten minutes later, an oral gavage of 0 (vehicle), 0.1, 0.5, 2.5, 5 and 50 mg/kg of SP-333 (1.5 ml/kg dose volume) was administered followed immediately by a 2 mL oral gavage of the charcoal meal. Ten minutes after the charcoal meal, animals were euthanized and intestinal transit was calculated as described above.
# [2] = test system: female Sprague-Dawley CD rats; assay: methadone-induced constipation in rats (fecal output); format: in vivo, rat
# [3] = test system: female Sprague-Dawley CD rats; assay: GI transit delay induced by repeated methadone administration in rats; format: in vivo, rat; details: after 16 doses (once daily; 7 doses at 5 mg/kg and 9 doses at 2.5 mg/kg)
# Experimental: The ability of SP-333 to alleviate GI transit delay induced by repeated methadone administration was also evaluated in the similar manner. Female Sprague-Dawley CD rats 7 to 8 weeks of age (n=7/group) received via IP injection 16 doses of methadone (once daily; 7 doses @ 5 mg/kg and 9 doses @ 2.5 mg/kg). Ten minutes following each methadone dose, each group received an oral gavage of vehicle, 2.5, and 5 mg/kg of SP-333. At the end of the dosing regimen, animals were fasted overnight and GI transit was evaluated as described above.
# [4] = test system: female Sprague-Dawley CD rats; assay: methadone-induced constipation in rats (fecal output); format: in vivo, rat; details: for average number of fecal pellets over 4 h, lower compared to the vehicle group: light cycle
# Experimental: To identify the methadone dose that induces constipation in rats, female Sprague-Dawley CD rats 7 to 8 weeks of age (n=6/group) were administered 0 (vehicle), 2.5, 5, and 7.5 mg/kg of methadone (1.5 ml/kg dose volume) by IP injection once a day for 5 days. Fecal pellets were collected at 4 h intervals during the light cycle and average number of pellets was recorded for each group during the course of the study following daily dose administrations of methadone.
# To evaluate the ability of SP-333 to relieve methadone-induced constipation, female Sprague-Dawley CD rats 7 to 8 weeks of age (n=7/group) were administered 5 mg/kg of methadone (or vehicle) each day for 7 days via IP injection to induce constipation. Ten minutes following the IP dose each day, an oral gavage of 2.5, and 5 mg/kg of SP-333 or vehicle (buffer) was administered. Fecal pellets were collected at 4 h intervals during the light cycle and average number of pellets recorded for each group during the course of the study following daily administration of vehicle, methadone or combination of methadone and SP-333.
# [5] = test system: female Sprague-Dawley rats; assay: morphine-induced delay in rat GI transit (charcoal meal); format: in vivo; details: for GI transit slowed compared to vehicle controls: rats
# Experimental: as §1, §2
# To evaluate the ability of SP-333 to reverse morphine induced delayed GI transit, animals were administered 2.5 mg/kg of morphine by IP injection followed immediately by oral gavage of 0 (vehicle), 0.5, 2.5, 5 and 50 mg/kg of SP-333 (1.5 ml/kg dose volume). Water served as vehicle control. Charcoal meal was administered ten minutes later and animals were euthanized ten minutes after the charcoal meal and intestinal transit was calculated as described above.
# [6] = biological target: T1, guanylate cyclase-C (GC-C) in rat jejunum (rat, UniProt P23897 23-1072); assay: cell-based or functional assay
# T1 sequence (looked up): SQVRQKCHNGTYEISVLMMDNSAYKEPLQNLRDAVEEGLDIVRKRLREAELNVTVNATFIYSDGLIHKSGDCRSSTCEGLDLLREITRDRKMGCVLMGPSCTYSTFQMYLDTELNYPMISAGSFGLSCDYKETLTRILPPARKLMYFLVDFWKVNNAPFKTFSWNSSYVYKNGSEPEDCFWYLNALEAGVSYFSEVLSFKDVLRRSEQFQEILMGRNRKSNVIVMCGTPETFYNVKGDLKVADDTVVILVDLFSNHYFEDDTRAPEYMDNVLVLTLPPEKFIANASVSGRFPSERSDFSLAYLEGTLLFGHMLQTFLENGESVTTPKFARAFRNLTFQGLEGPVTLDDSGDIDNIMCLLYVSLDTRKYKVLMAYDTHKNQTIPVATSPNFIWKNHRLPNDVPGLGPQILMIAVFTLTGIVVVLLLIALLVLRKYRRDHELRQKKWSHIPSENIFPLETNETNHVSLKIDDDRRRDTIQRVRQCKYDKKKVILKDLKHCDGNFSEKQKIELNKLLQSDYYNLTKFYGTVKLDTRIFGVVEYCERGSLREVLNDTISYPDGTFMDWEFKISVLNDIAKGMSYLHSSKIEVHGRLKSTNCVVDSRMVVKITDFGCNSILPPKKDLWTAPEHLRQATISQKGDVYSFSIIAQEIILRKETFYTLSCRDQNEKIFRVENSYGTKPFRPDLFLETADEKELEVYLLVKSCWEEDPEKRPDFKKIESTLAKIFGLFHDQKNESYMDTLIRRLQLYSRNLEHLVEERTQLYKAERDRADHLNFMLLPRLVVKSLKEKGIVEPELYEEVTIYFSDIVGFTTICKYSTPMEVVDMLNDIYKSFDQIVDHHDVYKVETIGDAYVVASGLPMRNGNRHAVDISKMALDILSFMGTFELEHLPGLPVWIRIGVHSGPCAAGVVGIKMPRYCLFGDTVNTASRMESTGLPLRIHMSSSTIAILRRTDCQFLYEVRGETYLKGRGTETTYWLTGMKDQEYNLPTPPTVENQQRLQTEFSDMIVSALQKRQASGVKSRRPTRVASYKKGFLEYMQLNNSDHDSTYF
# [7] = biological target: guanylate cyclase-C (GC-C) on T84 cells (human (T84, human carcinoma cell line), UniProt P25092 24-1073); assay: cell-based or functional assay
# Sequence of guanylate cyclase-C (GC-C) on T84 cells (P25092 24-1073): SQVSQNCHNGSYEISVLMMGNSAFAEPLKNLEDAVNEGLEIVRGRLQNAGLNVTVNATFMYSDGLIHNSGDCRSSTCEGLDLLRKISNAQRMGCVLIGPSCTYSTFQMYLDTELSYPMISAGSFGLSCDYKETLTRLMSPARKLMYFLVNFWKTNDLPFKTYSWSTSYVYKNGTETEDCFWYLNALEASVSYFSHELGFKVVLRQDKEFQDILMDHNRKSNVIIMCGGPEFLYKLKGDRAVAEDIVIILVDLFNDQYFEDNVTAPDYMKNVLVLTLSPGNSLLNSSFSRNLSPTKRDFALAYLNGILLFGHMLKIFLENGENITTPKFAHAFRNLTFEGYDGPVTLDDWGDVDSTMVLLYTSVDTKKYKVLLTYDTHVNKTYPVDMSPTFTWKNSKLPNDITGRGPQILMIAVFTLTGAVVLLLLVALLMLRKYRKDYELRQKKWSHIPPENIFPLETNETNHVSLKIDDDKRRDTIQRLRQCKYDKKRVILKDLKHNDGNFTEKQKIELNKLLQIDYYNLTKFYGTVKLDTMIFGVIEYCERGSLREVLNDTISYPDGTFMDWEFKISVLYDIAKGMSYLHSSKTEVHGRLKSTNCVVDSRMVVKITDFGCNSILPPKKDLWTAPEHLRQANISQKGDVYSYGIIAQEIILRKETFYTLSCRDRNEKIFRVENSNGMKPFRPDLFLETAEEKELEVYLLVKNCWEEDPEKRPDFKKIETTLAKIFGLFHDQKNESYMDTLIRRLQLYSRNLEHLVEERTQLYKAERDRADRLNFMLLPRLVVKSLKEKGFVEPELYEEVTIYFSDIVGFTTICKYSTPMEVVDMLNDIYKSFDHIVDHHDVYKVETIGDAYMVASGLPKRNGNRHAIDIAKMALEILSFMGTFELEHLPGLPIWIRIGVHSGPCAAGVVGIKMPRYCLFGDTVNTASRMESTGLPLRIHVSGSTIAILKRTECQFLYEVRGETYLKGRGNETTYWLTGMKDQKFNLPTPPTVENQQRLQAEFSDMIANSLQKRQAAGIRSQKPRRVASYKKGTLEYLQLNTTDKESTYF
molecule,measurement,setting,value
O=C(O)c1ccc(/C=C2\SC(=S)N(c3cccc(C(F)(F)F)c3)C2=O)cc1 [CFTRinh172],effect of inhibitor on SP-333-stimulated Isc,rat jejunum tissue,less compared to that detected in T84 cells
same,suppression in SP-333-stimulated Isc,"T84 cells monolayer; T84 cells, 10 μM inhibitor, vs 1 μM SP-333 alone",80%
Nc1ncnc2c1nc(Sc1ccc(Cl)cc1)n2[C@@H]1O[C@@H]2COP(=O)(O)O[C@H]2[C@H]1O [CPT-cAMP],stimulation of Isc across T84 cell monolayers,T84 cells monolayer,stimulate Isc
Nc1nc2c(nc(Sc3ccc(Cl)cc3)n2[C@@H]2O[C@@H]3COP(=O)(O)O[C@H]3[C@H]2O)c(=O)[nH]1 [CPT-cGMP],stimulation of Isc across T84 cell monolayers,T84 cells monolayer,stimulate Isc
[Cl][Cd][Cl] [CdCl2],effect of inhibitor on SP-333-stimulated Isc,rat jejunum tissue,minimal effect
same,decrease in SP-333-stimulated Isc,"T84 cells monolayer; T84 cells, 300 μM, 1 μM SP-333",No appreciable decrease
COC(=O)[C@@]1(OC)C[C@H]2O[C@]1(C)n1c3ccccc3c3c4c(c5c6ccccc6n2c5c31)C(=O)N(C)C4 [PKG-II inhibitor],suppression of relative SP-333-stimulated Isc,"T84 cells monolayer; T84 cells, 4 μM inhibitor, 1 μM SP-333",approximately 35%
CCC(=O)C(CC(C)N(C)C)(c1ccccc1)c1ccccc1 (stereo not drawn) [methadone],GI transit,[1]; 2.5 mg/kg methadone IP alone (vs 55% in vehicle treated),28%
same,GI transit,"[1]; 0.25, 2.5 and 5 mg/kg IP, rats",statistically significant reduction in GI transit
same,effect on SP-333 stimulation of Isc,rat jejunum tissue,did not alter stimulation of Isc
same,effect on 1 μM SP-333-stimulated Isc,rat jejunum tissue,no effect
same,"average number of fecal pellets over 4 h, lower compared to the vehicle group","[2]; 10 mg/kg IP once daily for 5 days, light cycle",63%
same,average number of fecal pellets,[2]; methadone alone 2.5 mg/kg IP once daily for 9 days,significant decrease in the average number of fecal pellets
same,rat small intestine transit,[3],significantly delayed rat small intestine transit
same,"average number of fecal pellets over 4 h, lower compared to the vehicle group",[4]; 2.5 mg/kg IP once daily for 5 days,29%
same,"average number of fecal pellets over 4 h, lower compared to the vehicle group",[4]; 5 mg/kg IP once daily for 5 days,77%
same,"average number of fecal pellets over 4 h, lower compared to the vehicle group",[4]; 7.5 mg/kg IP once daily for 5 days,54%
same,"average number of fecal pellets, less vs vehicle control","[4]; methadone alone, 5.0 mg/kg IP daily 7 days then 2.5 mg on days 8-16",82%
same,effect on SP-333 stimulation of Isc,T84 cells monolayer,did not alter stimulation of Isc
same,effect on 1 μM SP-333-stimulated Isc,T84 cells monolayer; T84 cells,no effect
same,effect on SP-333 mediated enhancement in Isc,"T84 cells monolayer; T84 monolayer, 1 μM SP-333 then opioid at 20 μM, FIG. 5B",inhibited
CN1CC[C@]23c4c5ccc(O)c4O[C@H]2[C@@H](O)C=C[C@H]3[C@H]1C5 [morphine],effect on SP-333 stimulation of Isc,rat jejunum tissue,did not alter stimulation of Isc
same,effect on 1 μM SP-333-stimulated Isc,rat jejunum tissue,negligible effect
same,GI transit,[5]; 2.5 mg/kg morphine IP alone (vs 53% in vehicle treated),23%
same,GI transit slowed compared to vehicle controls,[5]; single dose 0.25 mg/kg IP,52%
same,GI transit slowed compared to vehicle controls,[5]; single dose 1.0 mg/kg IP,56%
same,effect on SP-333 stimulation of Isc,T84 cells monolayer,did not alter stimulation of Isc
same,effect on 1 μM SP-333-stimulated Isc,T84 cells monolayer; T84 cells,negligible effect
B1,"EC50 of stimulation of Isc across rat jejunum tissue, apical treatment",[6],287 nM
same,"EC50 of stimulation of Isc across T84 cells monolayer, apical treatment",[7],215 nM
